In US10858326B2, “Oxazoline pseudodimers, pharmaceutical compositions and the use thereof” (PURDUE PHARMA L.P., priority 2016, dated 2020):

Target: hTAAR1 (Homo sapiens (Human), UniProt Q96RJ0)
Assay: in vitro cAMP assay (agonist activity assay), HitHunter cAMP XS+, cAMP Hunter cell lines
Assay type: cell-based
Settings: cAMP Hunter cells, n in brackets; for EC50: 30 min at 37° C., read-out: hTAAR1 EC50 (mean ± SEM(n)); for Emax: maximal cAMP level, read-out: hTAAR1 Emax (mean ± SEM(n))
Procedure: EC50 (the effective concentration of an agonist that produces half of the maximal effect) and Emax (the maximal cAMP level generated by the biding of a ligand) can be used as a measure of potency. […] An in vitro cAMP assay (agonist activity assay) is described below.
cAMP Hunter cell lines were expanded from freezer stocks according to standard procedures. Cells were seeded in a total volume of 20 μL into white walled, 384-well microplates and incubated at 37° C. overnight prior to testing. cAMP modulation was determined using the HitHunter™ cAMP XS+ assay (DiscoverX, Fremont, Calif.).
On the day of test, media was aspirated from cells and replaced with 15 μL HBSS/10 mM HEPES. A plate centrifuge was used for the media exchange, and the plate centrifuge was immediately stopped once its speed hit 270 RPM.
5 μL of 4× compound (prepared in HBSS/10 mM HEPES/4% DMSO) was added to cells and incubated at 37° C. for 30 minutes. Final assay vehicle concentration was 1%.
5 μL of cAMP XS+ Antibody reagent was then added, followed by 20 μL of ED/CL lysis mix. The mixture was incubated at room temperature for 60 minutes. 20 μL of EA reagent was added, and the mixture was incubated at room temperature for 120 minutes.
Microplates were read following signal generation with a PerkinElmer Envision™ instrument (Waltham, Mass.) for chemiluminescent signal detection. Compound activity was analyzed using CBIS Data Analysis Suite (ChemInnovation, CA).

Sequence of hTAAR1 (Q96RJ0 whole entry): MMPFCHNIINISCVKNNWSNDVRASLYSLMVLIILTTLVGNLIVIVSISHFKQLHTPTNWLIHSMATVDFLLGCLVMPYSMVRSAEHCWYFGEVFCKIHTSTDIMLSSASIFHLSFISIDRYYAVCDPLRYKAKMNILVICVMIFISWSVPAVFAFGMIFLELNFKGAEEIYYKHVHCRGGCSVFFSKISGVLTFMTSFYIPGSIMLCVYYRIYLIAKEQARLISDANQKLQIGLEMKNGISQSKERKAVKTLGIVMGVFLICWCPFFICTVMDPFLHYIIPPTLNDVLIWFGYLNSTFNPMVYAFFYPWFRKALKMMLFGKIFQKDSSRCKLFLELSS

Structure (SMILES) | EC50 | Emax
Clc1ccc([C@H]2COC(NC3=N[C@@H](c4ccc(Cl)c(Cl)c4)CO3)=N2)cc1Cl [Compound (8), (4S)-4-(3,4-dichlorophenyl)-N-[(4S)-4-(3,4-dichlorophenyl)-4,5-dihydro-1,3-oxazol-2-yl]-4,5-dihydro-1,3-oxazol-2-amine] | > 10 µM | 
Cc1c(F)cccc1[C@H]1COC(NC2=N[C@@H](c3cccc(F)c3C)CO2)=N1 [Compound (27), (4S)-4-(3-fluoro-2-methylphenyl)-N-[(4S)-4-(3-fluoro-2-methylphenyl)-4,5-dihydro-1,3-oxazol-2-yl]-4,5-dihydro-1,3-oxazol-2-amine] | 0.398 ± 0.0656 µM | 67.5 ± 3.4%
c1ccc([C@H]2COC(NC3=N[C@@H](c4ccccc4)CO3)=N2)cc1 [Compound (26), (4S)-4-phenyl-N-[(4S)-4-phenyl-4,5-dihydro-1,3-oxazol-2-yl]-4,5-dihydro-1,3-oxazol-2-amine] | > 10 µM | 3.6 ± 0.9%

More lines, main results first:

EC50 | Structure (SMILES) | Emax
4.07 ± 1.07 µM | CCN(C[C@H]1COC(NC2=N[C@@H](CN(CC)c3ccccc3)CO2)=N1)c1ccccc1 [Compound (25), (4S)-4-{[ethyl(phenyl)amino]methyl}-N-[(4S)-4-{[ethyl(phenyl)amino]methyl}-4,5-dihydro-1,3-oxazol-2-yl]-4,5-dihydro-1,3-oxazol-2-amine] | 60.7 ± 9.4%
> 10 µM | CCN(C[C@H]1COC(NC2=N[C@@H](c3ccc(Cl)c(Cl)c3)CO2)=N1)c1ccccc1 [Compound (24), (4S)-4-(3,4-dichlorophenyl)-N-[(4S)-4-{[ethyl(phenyl)amino]methyl}-4,5-dihydro-1,3-oxazol-2-yl]-4,5-dihydro-1,3-oxazol-2-amine] | 34.3 ± 8.7%
